Data on 20 compounds can be found in patent publication US7838518B2, “1-arylsulfonyl-3-substituted indole and indoline derivatives useful in the treatment of central nervous system disorders” (N.V. Organon, priority 2002, dated 2010).

Where a name gives a salt, the structure may show the parent alone.

T1 sequence (P50406 whole entry): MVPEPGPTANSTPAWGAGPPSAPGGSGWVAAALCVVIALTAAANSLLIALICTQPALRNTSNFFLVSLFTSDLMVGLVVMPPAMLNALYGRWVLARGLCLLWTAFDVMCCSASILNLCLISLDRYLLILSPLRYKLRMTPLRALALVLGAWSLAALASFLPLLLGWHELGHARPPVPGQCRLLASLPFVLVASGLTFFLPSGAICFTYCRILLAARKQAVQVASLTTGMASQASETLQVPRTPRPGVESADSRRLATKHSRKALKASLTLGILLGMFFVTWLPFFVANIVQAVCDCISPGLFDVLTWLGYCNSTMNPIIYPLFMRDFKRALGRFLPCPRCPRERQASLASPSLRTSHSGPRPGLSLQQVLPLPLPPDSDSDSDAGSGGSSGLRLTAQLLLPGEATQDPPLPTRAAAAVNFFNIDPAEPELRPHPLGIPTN

The assay concerns the target T1, human 5-HT6 receptor (Homo sapiens, UniProt P50406).
T1 construct: expressed in transfected cells
Description: 5-HT6 receptor binding assay ([3H]-LSD competition). The following applies: membranes of NIH 3T3 cells stably expressing the human 5-HT6 gene; [3H]-LSD radioligand; IC50 converted to pKi by Cheng-Prusoff equation; read-out: pKi (affinity for the 5-HT6 receptor) (converted). How it is done: The ability of the compounds of the invention to interact with the 5-HT6 receptor is established in (competitive) binding studies to NIH 3T3 cells stably expressing the human 5-HT6 receptor.
NIH 3T3 cells stably expressing the human 5-HT6 gene were grown at 37° C. in a 5% CO2 atmosphere in DMEM supplemented with 10% cosmic calf serum (Hyclone) and subcultured when confluent. Cells were harvested by trypsination (Sigma) and membranes prepared by homogenisation followed by centrifugation in […] Tris buffer (pH 7.4) containing […] magnesium sulphate and […] EDTA. Radioligand binding assays were performed in 96 well polystyrene deep well plates (Semat) in a final volume of 500 μl, consisting of 100 μl of competing drug, 100 μl of 10 nmole·L^−1 [^3H]-lysergic acid diethylamide (LSD) and 300 μl of diluted membrane expressing the 5-HT6 receptor. All test compounds were dissolved in DMSO (dimethyl-sulfoxide) at 10 mM and serially diluted is assay buffer to give a six-fold concentration range (between 0.01 nM and 100 μM). Non-specific binding was determined with 10 μM Methiothepin. Plates were incubated at room temperature for 90 minutes. The reactions were terminated by rapid filtration using a Packard harvester onto 96 well GF/B filter plates (Packerd Unifilter) presoaked with 0.3% w/N polyethyleneimine, washed 3 times with ice-cold assay buffer (1 ml), oven dried and 50 μl Microscint-20 added. The retained radioactivity was then determined using a scintillation counter.
Data were analysed using standard curve fitting procedures (Graphpad: four parameter logistic equation) to produce IC50 values for active compounds (where IC50 is the concentration of test compound causing 50% inhibition of binding). IC50 values were conerted to pKi values using the Cheng-Prusoff equation 1 (Cheng, Y. and Prosoff, W. H., Biochem. Pharmacol. 22, 3099-3108, 1973).
Turning to `COc1ccc(S(=O)(=O)N2CC(C(=O)NC3CCCN(C)C3)c3ccccc32)c2ccccc12` (centres unmarked) [Example 2, 1-(4-Methoxynaphthalene-1-sulfonyl)-2,3-dihydro-1H-indole-3-carboxylic acid (1-methyl-piperidin-3-yl)amide], the Ki is less than 31.6 nM. The value for `CN1CCC(N(C)C(=O)C2CN(S(=O)(=O)c3cccc(-c4ccccc4)c3)c3ccccc32)CC1` (centres unmarked) [Example 60, 1-(Biphenyl-3-sulfonyl)-2,3-dihydro-1H-indole-3-carboxylic acid methyl-(1-methyl-piperidin-4-yl)-amide trifluoroacetate] was less than 31.6 nM; that for `CN1CCC(N(C)C(=O)C2CN(S(=O)(=O)c3cccc4c(Cl)cccc34)c3ccccc32)CC1` (centres unmarked) [Example 71, 1-(5-Chloro-naphthalene-1-sulfonyl)-2,3-dihydro-1H-indole-3-carboxylic acid methyl-(1-methyl-piperidin-4-yl)-amide trifluoroacetate] was less than 31.6 nM; that for `CN1CCC(N(C)C(=O)C2CN(S(=O)(=O)c3cccc4ccccc34)c3ccccc32)CC1` (centres unmarked) [Example 59, 1-(Naphthalene-1-sulfonyl)-2,3-dihydro-1H-indole-3-carboxylic acid methyl-(1-methyl-piperidin-4-yl)-amide trifluoroacetate] was less than 31.6 nM. In the case of `CN1CCC(N(C)C(=O)C2CN(S(=O)(=O)c3cc(Cl)sc3Cl)c3ccccc32)CC1` (centres unmarked) [Example 51, 1-(2,5-Dichloro-thiophene-3-sulfonyl)-2,3-dihydro-1H-indole-3-carboxylic acid methyl-(1-methyl-piperidin-4-yl)-amide trifluoroacetate], the Ki is less than 31.6 nM. The value for `COc1ccc(S(=O)(=O)N2CC(C(=O)NC3CCN(C)CC3)c3ccccc32)c2ccccc12` (centres unmarked) [Example 25, 1-(4-Methoxynaphthalene-1-sulfonyl)-2,3-dihydro-1H-indole-3-carboxylic acid (1-methyl-piperidin-4-yl)-amide] was less than 31.6 nM. The figure for `COc1ccc(S(=O)(=O)N2CC(C(=O)N3CCNCC3)c3ccccc32)c2ccccc12` (centres unmarked) [Example 17, [1-(4-Methoxynaphthalene-1-sulfonyl)-2,3-dihydro-1H-indol-3-yl]-piperazin-1-yl-methanone] is less than 31.6 nM; for `COc1ccc(S(=O)(=O)N2CC(C(=O)NC3CC4CCC(C3)N4C)c3ccccc32)c2ccccc12` (centres unmarked) [Example 31, 1-(4-Methoxynaphthalene-1-sulfonyl)-2,3-dihydro-1H-indole-3-carboxylic acid (8-methyl-8-aza-bicyclo[3.2.1]oct-3-yl)amide] it is less than 31.6 nM; for `CN1CCC(N(C)C(=O)C2CN(S(=O)(=O)c3ccc(C(F)(F)F)cc3)c3ccccc32)CC1` (centres unmarked) [Example 50, 1-(4-Trifluoromethyl-benzenesulfonyl)-2,3-dihydro-1H-indole-3-carboxylic acid methyl-(1-methyl-piperidin-4-yl)-amide trifluoroacetate] it is less than 31.6 nM. The value for `CN1CCC(N(C)C(=O)C2CN(S(=O)(=O)c3csc4ccccc34)c3ccccc32)CC1` (centres unmarked) [Example 62, 1-(Benzo[b]thiophene-3-sulfonyl)-2,3-dihydro-1H-indole-3-carboxylic acid methyl-(1-methyl-piperidin-4-yl)-amide trifluoroacetate] was less than 31.6 nM; that for `COc1ccc(S(=O)(=O)N2CC(C(=O)N(C)C3CCN(C)CC3)c3ccccc32)c2ccccc12` (centres unmarked) [Example 35, 1-(4-Methoxynaphthalene-1-sulfonyl)-2,3-dihydro-1H-indole-3-carboxylic acid methyl-(1-methyl-piperidin-4-yl)-amide] was less than 31.6 nM. For the compound `CCN(CC)CCNC(=O)C1CN(S(=O)(=O)c2ccc(OC)c3ccccc23)c2ccccc21` (centres unmarked) [Example 24, 1-(4-Methoxynaphthalene-1-sulfonyl)-2,3-dihydro-1H-indole-3-carboxylic acid (2-diethylamino-ethyl)-amide], the Ki is less than 31.6 nM. The value for `COc1ccc(S(=O)(=O)N2CC(C(=O)N(C)C3CCN(C)CC3)c3ccccc32)cc1Br` (centres unmarked) [Example 69, 1-(3-Bromo-4-methoxy-benzenesulfonyl)-2,3-dihydro-1H-indole-3-carboxylic acid methyl-(1-methyl-piperidin-4-yl)-amide trifluoroacetate] was less than 31.6 nM; that for `Cc1cc(S(=O)(=O)N2CC(C(=O)N(C)C3CCN(C)CC3)c3ccccc32)c(C(F)(F)F)o1` (centres unmarked) [Example 109, 1-(5-Methyl-2-trifluoromethyl-furan-3-sulphonyl)-2,3-dihydro-1H-indole-3-carboxylic acid methyl-(1-methyl-piperidin-4-yl)-amide] was less than 31.6 nM.

Regarding `CN1CCC(N(C)C(=O)C2CN(S(=O)(=O)c3ccc4c(c3)CCO4)c3ccccc32)CC1` (centres unmarked) [Example 55, 1-(2,3-Dihydro-benzofuran-5-sulfonyl)-2,3-dihydro-1H-indole-3-carboxylic acid methyl-(1-methyl-piperidin-4-yl)-amide trifluoroacetate], the Ki was less than 31.6 nM.

For `CN1CCC(N(C)C(=O)C2CN(S(=O)(=O)c3ccc(OC(F)(F)F)cc3)c3ccccc32)CC1` (centres unmarked) [Example 42, 1-(4-Trifluoromethoxy-benzenesulfonyl)-2,3-dihydro-1H-indole-3-carboxylic acid methyl-(1-methyl-piperidin-4-yl)-amide trifluoroacetate], the Ki was less than 31.6 nM. The value for `COc1ccc(S(=O)(=O)N2CC(C(=O)NCCC3CCCN3C)c3ccccc32)c2ccccc12` (centres unmarked) [Example 1, 1-(4-Methoxynaphthalene-1-sulfonyl)-2,3-dihydro-1H-indole-3-carboxylic acid [2-(1-methyl-pyrrolidin-2-yl)-ethyl]amide] was less than 31.6 nM; that for `CN1CCC(N(C)C(=O)C2CN(S(=O)(=O)c3cccc(C(F)(F)F)c3)c3ccccc32)CC1` (centres unmarked) [Example 39, 1-(3-Trifluoromethyl-benzenesulfonyl)-2,3-dihydro-1H-indole-3-carboxylic acid methyl-(1-methyl-piperidin-4-yl)-amide trifluoroacetate] was less than 31.6 nM; that for `CN1CCC(N(C)C(=O)C2CN(S(=O)(=O)c3cccc(Br)c3)c3ccccc32)CC1` (centres unmarked) [Example 40, 1-(3-Bromo-benzenesulfonyl)-2,3-dihydro-1H-indole-3-carboxylic acid methyl-(1-methyl-piperidin-4-yl)-amide trifluoroacetate] was less than 31.6 nM. The figure for `CN1CCC(N(C)C(=O)C2CN(S(=O)(=O)c3ccc4ccccc4c3)c3ccccc32)CC1` (centres unmarked) [Example 58, 1-(Naphthalene-2-sulfonyl)-2,3-dihydro-1H-indole-3-carboxylic acid methyl-(1-methyl-piperidin-4-yl)-amide trifluoroacetate] is less than 31.6 nM.
